Results as given in patent US10485236B2, “Triazole derivatives, intermediates thereof and their use as fungicides” (Bayer CropScience Aktiengesellschaft, priority 2015, dated 2019).

Key:
[1] = system: Puccinia recondita; experiment: Example B: in vivo preventive test on Puccinia recondita (brown rust on wheat); conditions: 264 h, 500 ppm of active ingredient, wheat plants, preventive spray, evaluated 11 days after inoculation, read-out: efficacy
Procedure: (§1) Example B: In Vivo Preventive Test on Puccinia recondita (Brown Rust on Wheat) [table] The active ingredients are made soluble and homogenized in a mixture of Dimethyl sulfoxide/Acetone//Tween® 80 and then diluted in water to the desired concentration. The young plants of wheat are treated by spraying the active ingredient prepared as described above. Control plants are treated only with an aqueous solution of Acetone/Dimethyl sulfoxide/Tween® 80. After 24 hours, the plants are contaminated by spraying the leaves with an aqueous suspension of Puccinia recondita spores. The contaminated wheat plants are incubated for 24 hours at 20° C. and at 100% relative humidity and then for 10 days at 20° C. and at 70-80% relative humidity. The test is evaluated 11 days after the inoculation. 0% means an efficacy which corresponds to that of the control plants while an efficacy of 100% means that no disease is observed.

[2] = system: Uromyces appendiculatus; experiment: Example E: in vivo preventive test on Uromyces appendiculatus (bean rust); conditions: 264 h, 500 ppm of active ingredient, bean plants, preventive spray, evaluated 11 days after inoculation, read-out: efficacy
Procedure: as §1, with “E:” for “B:”, “Uromyces appendiculatus (Bean Rust)” for “Puccinia recondita (Brown Rust on Wheat)”, “bean” for “wheat”, “Uromyces appendiculatus” for “Puccinia recondita”

[3] = system: Septoria tritici; experiment: Example C: in vivo preventive test on Septoria tritici (leaf spot on wheat); conditions: Zymoseptoria tritici, 576 h; 500 ppm of active ingredient; wheat plants, preventive spray; evaluated 24 days after inoculation; read-out: efficacy
Procedure: Example C: In Vivo Preventive Test on Septoria tritici (Leaf Spot on Wheat) [table] The active ingredients are made soluble and homogenized in a mixture of Dimethyl sulfoxide/Acetone//Tween® 80 and then diluted in water to the desired concentration. The young plants of wheat are treated by spraying the active ingredient prepared as described above. Control plants are treated only with an aqueous solution of Acetone/Dimethyl sulfoxide/Tween® 80. After 24 hours, the plants are contaminated by spraying the leaves with an aqueous suspension of Septoria tritici spores. The contaminated wheat plants are incubated for 72 hours at 18° C. and at 100% relative humidity and then for 21 days at 20° C. and at 90% relative humidity. The test is evaluated 24 days after the inoculation. 0% means an efficacy which corresponds to that of the control plants while an efficacy of 100% means that no disease is observed.

[4] = system: Alternaria solani; experiment: Example F: in vivo preventive test on Alternaria test (tomatoes); conditions: 72 h, 100 ppm of active ingredient, preventive spray, evaluated 3 days after inoculation, read-out: efficacy
Procedure: Example F: In Vivo Preventive Test on Alternaria Test (Tomatoes) [table] To produce a suitable preparation of active compound, 1 part by weight of active compound is mixed with the stated amounts of solvent and emulsifier, and the concentrate is diluted with water to the desired concentration. To test for preventive activity, young plants are sprayed with the preparation of active compound at the stated rate of application. After the spray coating has dried on, the plants are inoculated with an aqueous spore suspension of Alternaria solani. The plants are then placed in an incubation cabinet at approximately 20° C. and a relative atmospheric humidity of 100%. The test is evaluated 3 days after the inoculation. 0% means an efficacy which corresponds to that of the untreated control while an efficacy of 100% means that no disease is observed.

[5] = system: Venturia inaequalis; experiment: Example H: in vivo preventive test on Venturia test (apples); conditions: 240 h, 100 ppm of active ingredient, preventive spray, evaluated 10 days after inoculation, read-out: efficacy
Procedure: Example H: In Vivo Preventive Test on Venturia Test (Apples) [table] To produce a suitable preparation of active compound, 1 part by weight of active compound is mixed with the stated amounts of solvent and emulsifier, and the concentrate is diluted with water to the desired concentration. To test for preventive activity, young plants are sprayed with the preparation of active compound at the stated rate of application. After the spray coating has dried on, the plants are inoculated with an aqueous conidia suspension of the causal agent of apple scab (Venturia inaequalis) and then remain for 1 day in an incubation cabinet at approximately 20° C. and a relative atmospheric humidity of 100%. The plants are then placed in a greenhouse at approximately 21° C. and a relative atmospheric humidity of approximately 90%. The test is evaluated 10 days after the inoculation. 0% means an efficacy which corresponds to that of the untreated control, while an efficacy of 100% means that no disease is observed.

[6] = Measurement of LogP values by HPLC on reversed phase columns (EEC directive 79/831 Annex V.A8); assay type: physicochemical; conditions: reversed phase HPLC column
In short: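 Calibrated with straight-chain alkan-2-ones (3–16 carbons) of known LogP, using retention times with linear interpolation between successive alkanones. Where one method gives several LogP values, all are listed, joined by "+". Lambda-max taken from UV spectra (200–400 nm) at chromatographic peak maxima.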

[7] = system: Sphaerotheca fuliginea; experiment: Example D: in vivo preventive test on Sphaerotheca fuliginea (powdery mildew on cucurbits); conditions: Podosphaera fuliginea, 360 h; 500 ppm of active ingredient; gherkin plants, preventive spray; evaluated 15 days after inoculation; read-out: efficacy
Procedure: Example D: In Vivo Preventive Test on Sphaerotheca fuliginea (Powdery Mildew on Cucurbits) [table] The active ingredients are made soluble and homogenized in a mixture of Dimethyl sulfoxide/Acetone//Tween® 80 and then diluted in water to the desired concentration. The young plants of gherkin are treated by spraying the active ingredient prepared as described above. Control plants are treated only with an aqueous solution of Acetone/Dimethyl sulfoxide/Tween® 80. After 24 hours, the plants are contaminated by spraying the leaves with an aqueous suspension of Sphaerotheca fuliginea spores. The contaminated gherkin plants are incubated for 72 hours at 18° C. and at 100% relative humidity and then for 12 days at 20° C. and at 70-80% relative humidity. The test is evaluated 15 days after the inoculation. 0% means an efficacy which corresponds to that of the control plants while an efficacy of 100% means that no disease is observed.

[8] = method [a]: LC-UV, acidic range, 0.1% formic acid in water and acetonitrile as eluent

OC(Cn1cncn1)c1cnc(Oc2ccc(C(F)(F)F)cc2)cc1C(F)(F)F (stereo not shown) [I.47]
pest or weed control at 500 ppm [1]: 90 to 100%
pest or weed control at 500 ppm [2]: 90 to 100%
pest or weed control at 500 ppm [3]: 90 to 100%
pest or weed control at 100 ppm [4]: 90 to 100%
pest or weed control at 100 ppm [5]: 90 to 100%
chromatographic logP [6, 8]: 2.84
pest or weed control at 500 ppm [7]: 90 to 100%

O=C(Cn1cncn1)c1ccc(Oc2ccc(Cl)cc2)nc1C(F)(F)F [VII.01, 1-[6-(4-chlorophenoxy)-2-(trifluoromethyl)-3-pyridyl]-2-(1,2,4-triazol-1-yl)ethanone]
pest or weed control at 500 ppm [1]: 90 to 100%
pest or weed control at 500 ppm [2]: 90 to 100%
pest or weed control at 500 ppm [3]: 80 to 89%
pest or weed control at 100 ppm [4]: 80 to 89%
pest or weed control at 100 ppm [5]: 90 to 100%
chromatographic logP ([6]; method [a], compounds of formula (VII), Table 4): 2.92
pest or weed control at 500 ppm [7]: 90 to 100%

Cc1ccc(Oc2ccc(C(O)Cn3cncn3)c(Cl)n2)cc1Cl (stereo not shown) [I.16]
pest or weed control at 500 ppm [1]: 80 to 89%
pest or weed control at 500 ppm [2]: 90 to 100%
pest or weed control at 500 ppm [3]: 80 to 89%
pest or weed control at 100 ppm [4]: 90 to 100%
pest or weed control at 100 ppm [5]: 90 to 100%
chromatographic logP [6, 8]: 2.73
pest or weed control at 500 ppm [7]: 90 to 100%

CC(O)(Cn1cncn1)c1ccc(Oc2ccc(Cl)cc2)nc1C(F)(F)F (stereo not shown) [I.01, 2-[6-(4-chlorophenoxy)-2-(trifluoromethyl)-3-pyridyl]-1-(1,2,4-triazol-1-yl)propan-2-ol]
pest or weed control at 500 ppm [1]: 90 to 100%
pest or weed control at 500 ppm [2]: 90 to 100%
pest or weed control at 500 ppm [3]: 90 to 100%
pest or weed control at 100 ppm [4]: 90 to 100%
pest or weed control at 100 ppm [5]: 90 to 100%
chromatographic logP [6, 8]: 2.88
pest or weed control at 500 ppm [7]: 90 to 100%

CC(O)(Cn1cncn1)c1cnc(Oc2ccc(Cl)cc2)cc1C(F)(F)F (stereo not shown) [I.02, 2-[6-(4-chlorophenoxy)-4-(trifluoromethyl)-3-pyridyl]-1-(1,2,4-triazol-1-yl)propan-2-ol]
pest or weed control at 500 ppm [1]: 90 to 100%
pest or weed control at 500 ppm [2]: 90 to 100%
pest or weed control at 500 ppm [3]: 80 to 89%
pest or weed control at 100 ppm [4]: 90 to 100%
pest or weed control at 100 ppm [5]: 90 to 100%
chromatographic logP [6, 8]: 2.9
pest or weed control at 500 ppm [7]: 90 to 100%

OC(Cn1cncn1)c1cnc(Oc2ccc(S(F)(F)(F)(F)F)cc2)cc1C(F)(F)F (stereo not shown) [I.36]
pest or weed control at 500 ppm [1]: 90 to 100%
pest or weed control at 500 ppm [2]: 90 to 100%
pest or weed control at 500 ppm [3]: 80 to 89%
pest or weed control at 100 ppm [4]: 90 to 100%
pest or weed control at 100 ppm [5]: 90 to 100%
chromatographic logP [6, 8]: 3.15
pest or weed control at 500 ppm [7]: 90 to 100%

OC(Cn1cncn1)c1ccc(Oc2ccc(Cl)cc2)nc1C(F)(F)F (stereo not shown) [I.03, 1-[6-(4-chlorophenoxy)-2-(trifluoromethyl)-3-pyridyl]-2-(1,2,4-triazol-1-yl)ethanol]
pest or weed control at 500 ppm [1]: 90 to 100%
pest or weed control at 500 ppm [2]: 90 to 100%
pest or weed control at 500 ppm [3]: 90 to 100%
pest or weed control at 100 ppm [4]: 80 to 89%
pest or weed control at 100 ppm [5]: 90 to 100%
chromatographic logP [6, 8]: 2.7
pest or weed control at 500 ppm [7]: 90 to 100%

OC(Cn1cncn1)c1ccc(Oc2ccc(Cl)cc2)nc1Cl (stereo not shown) [I.14]
pest or weed control at 500 ppm [1]: 90 to 100%
pest or weed control at 500 ppm [2]: 90 to 100%
pest or weed control at 500 ppm [3]: 90 to 100%
pest or weed control at 100 ppm [4]: 90 to 100%
pest or weed control at 100 ppm [5]: 90 to 100%
chromatographic logP [6, 8]: 2.42
pest or weed control at 500 ppm [7]: 90 to 100%

C[C@@](O)(Cn1cncn1)c1cnc(Oc2ccc(Cl)cc2)cc1C(F)(F)F [I.45]
pest or weed control at 500 ppm [1]: 90 to 100%
pest or weed control at 500 ppm [2]: 90 to 100%
pest or weed control at 500 ppm [3]: 90 to 100%
pest or weed control at 100 ppm [4]: 90 to 100%
pest or weed control at 100 ppm [5]: 90 to 100%
chromatographic logP [6, 8]: 2.84
pest or weed control at 500 ppm [7]: 90 to 100%

CC(O)(Cn1cncn1)c1ccc(Oc2ccc(C(F)F)cc2)nc1Cl (stereo not shown) [I.39]
pest or weed control at 500 ppm [1]: 90 to 100%
pest or weed control at 500 ppm [2]: 90 to 100%
pest or weed control at 500 ppm [3]: 90 to 100%
pest or weed control at 100 ppm [4]: 90 to 100%
pest or weed control at 100 ppm [5]: 80 to 89%
chromatographic logP [6, 8]: 2.41
pest or weed control at 500 ppm [7]: 90 to 100%

OC(Cn1cncn1)(c1ccc(Oc2ccc(Cl)cc2)nc1C(F)(F)F)C1CC1 (stereo not shown) [I.91, 1-[6-(4-chlorophenoxy)-2-(trifluoromethyl)-3-pyridyl]-1-cyclopropyl-2-(1,2,4-triazol-1-yl)ethanol]
pest or weed control at 500 ppm [1]: 90 to 100%
pest or weed control at 500 ppm [2]: 90 to 100%
pest or weed control at 500 ppm [3]: 90 to 100%
pest or weed control at 100 ppm [5]: 90 to 100%
chromatographic logP [6, 8]: 3.26
pest or weed control at 500 ppm [7]: 90 to 100%

CC(O)(Cn1cncn1)c1cnc(Oc2ccccc2)cc1Cl (stereo not shown) [I.05]
pest or weed control at 500 ppm [1]: 90 to 100%
pest or weed control at 500 ppm [2]: 90 to 100%
pest or weed control at 500 ppm [3]: 90 to 100%
pest or weed control at 100 ppm [4]: 90 to 100%
pest or weed control at 100 ppm [5]: 90 to 100%
chromatographic logP [6, 8]: 2.1
chromatographic logP ([6]; method [b]: LC-UV, neutral range, 0.001 molar ammonium acetate solution in water and acetonitrile as eluent): 2.06
pest or weed control at 500 ppm [7]: 90 to 100%

CC(O)(Cn1cncn1)c1ccc(Oc2ccc(S(F)(F)(F)(F)F)cc2)nc1Cl (stereo not shown) [I.35]
pest or weed control at 500 ppm [1]: 90 to 100%
pest or weed control at 500 ppm [2]: 90 to 100%
pest or weed control at 500 ppm [3]: 90 to 100%
pest or weed control at 100 ppm [4]: 90 to 100%
pest or weed control at 100 ppm [5]: 90 to 100%
chromatographic logP [6, 8]: 3.17
pest or weed control at 500 ppm [7]: 90 to 100%
